Laboratory results reported in patent US10941157B2, “Pesticidal compositions and uses thereof” (Gilead Apollo, LLC, priority 2015, dated 2021).
Converted amounts (≈) assume the structure as drawn. Read-outs that look alike come from different tables or passages of the source.

Columns and labels:
Assay type in all cases: cell-based
[1] = system: Fusarium moniliforme (Fm); test: In vitro pathogen growth inhibition assay, Fm; settings: Fusarium verticillioides
Summary of the method: (§1)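 Spores in 17% V8 liquid medium, or 1.5 mm Rs mycelial plugs in ¼ PDB, incubated with compound; final concentration checked by OD600 for precipitation. OD readings at 24 and 48 h, blank-subtracted, plus visual ratings; value is concentration giving ≥90% growth inhibition.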

[2] = system: Diplodia maydis (Dm); test: In vitro pathogen growth inhibition assay, Dm; settings: Stenocarpella maydis, 48 h
Summary of the method: as §1

[3] = system: Septoria tritici (St); test: In vitro pathogen growth inhibition assay, St; settings: Zymoseptoria tritici, 48 h
Summary of the method: as §1

[4] = system: Rhizoctonia solani (Rs); test: In vitro pathogen growth inhibition assay, Rs (mycelial plugs); settings: Rhizoctonia solani, 48 h
Summary of the method: as §1

[5] = system: Collectotrichum graminicola (Cg); test: In vitro pathogen growth inhibition assay, Cg; settings: 48 h
Summary of the method: as §1

[6] = system: Phytophthora capsici (Pc); test: In vitro pathogen growth inhibition assay, Pc; settings: 48 h
Summary of the method: as §1

[7] = system: Botrtyis cinerea (Bc); test: In vitro pathogen growth inhibition assay, Bc; settings: 48 h
Summary of the method: as §1

[8] = system: Fusarium virguliforme (Fv); test: In vitro pathogen growth inhibition assay, Fv
Summary of the method: as §1

[9] = ≥90% growth inhibition, 48 hours, vs 2% DMSO control, read-out: Compound Concentration (ppm) sufficient for ≥90% inhibition of Fm
[10] = ≥90% growth inhibition, 48 hours, vs 2% DMSO control, read-out: Compound Concentration (ppm) sufficient for ≥90% inhibition of Dm
[11] = ≥90% growth inhibition, 48 hours, vs 2% DMSO control, read-out: Compound Concentration (ppm) sufficient for ≥90% inhibition of St
[12] = ≥90% growth inhibition, mycelial plugs, 48 hours, vs 2% DMSO control, read-out: Compound Concentration (ppm) sufficient for ≥90% inhibition of Rs
[13] = ≥90% growth inhibition, 48 hours, vs 2% DMSO control, read-out: Compound Concentration (ppm) sufficient for ≥90% inhibition of Cg
[14] = ≥90% growth inhibition, 48 hours, vs 2% DMSO control, read-out: Compound Concentration (ppm) sufficient for ≥90% inhibition of Pc
[15] = ≥90% growth inhibition, 48 hours, vs 2% DMSO control, read-out: Compound Concentration (ppm) sufficient for ≥90% inhibition of Bc
[16] = ≥90% growth inhibition, 48 hours, vs 2% DMSO control, read-out: Compound Concentration (ppm) sufficient for ≥90% inhibition of Fv
[17] = concentration sufficient to ≥90% inhibition of growth, 48 hours vs 2% DMSO control, read-out: Compound Concentration (ppm) for ≥90% inhibition, Fm
[18] = concentration sufficient to ≥90% inhibition of growth, 48 hours vs 2% DMSO control, read-out: Compound Concentration (ppm) for ≥90% inhibition, Dm
[19] = concentration sufficient to ≥90% inhibition of growth, 48 hours vs 2% DMSO control, read-out: Compound Concentration (ppm) for ≥90% inhibition, St
[20] = concentration sufficient to ≥90% inhibition of growth, 48 hours vs 2% DMSO control, read-out: Compound Concentration (ppm) for ≥90% inhibition, Rs
[21] = concentration sufficient to ≥90% inhibition of growth, 48 hours vs 2% DMSO control, read-out: Compound Concentration (ppm) for ≥90% inhibition, Cg
[22] = concentration sufficient to ≥90% inhibition of growth, 48 hours vs 2% DMSO control, read-out: Compound Concentration (ppm) for ≥90% inhibition, Pc
[23] = concentration sufficient to ≥90% inhibition of growth, 48 hours vs 2% DMSO control, read-out: Compound Concentration (ppm) for ≥90% inhibition, Bc
[24] = concentration sufficient to ≥90% inhibition of growth, 48 hours vs 2% DMSO control, read-out: Compound Concentration (ppm) for ≥90% inhibition, Fv

| SMILES | IC90 [1, 9] | IC90 [2, 10] | IC90 [3, 11] | IC90 [4, 12] | IC90 [5, 13] | IC90 [6, 14] | IC90 [7, 15] | IC90 [8, 16] | IC90 [1, 17] | IC90 [2, 18] | IC90 [3, 19] | IC90 [4, 20] | IC90 [5, 21] | IC90 [6, 22] | IC90 [7, 23] | IC90 [8, 24] |
| --- | --- | --- | --- | --- | --- | --- | --- | --- | --- | --- | --- | --- | --- | --- | --- | --- |
| COc1ccc(F)cc1[C@H](Cn1c(=O)n(C(C)(C)C(=O)N2CCCCC2)c(=O)c2c(C)c(-n3cccn3)sc21)OC1CCOCC1 [Compound I-166] | ≥ 0.08 µg/mL | ≥ 2 µg/mL | ≥ 50 µg/mL | 10 µg/mL (≈ 15.3 µM) | 2 µg/mL (≈ 3.06 µM) | > 50 µg/mL | 2 µg/mL (≈ 3.06 µM) | 2 µg/mL (≈ 3.06 µM) |  |  |  |  |  |  |  |  |
| COc1ccc(F)cc1[C@H](Cn1c(=O)n(C(C)(C)C(=O)N2CCCC2)c(=O)c2c(C)c(-n3nccn3)sc21)OC[C@@H](C)O [Compound I-167] | ≥ 0.08 µg/mL | 2 µg/mL (≈ 3.25 µM) | > 50 µg/mL | ≥ 0.4 µg/mL | ≥ 0.4 µg/mL | 50 µg/mL (≈ 81.3 µM) | 2 µg/mL (≈ 3.25 µM) | 2 µg/mL (≈ 3.25 µM) |  |  |  |  |  |  |  |  |
| COc1ccc(F)cc1[C@H](Cn1c(=O)n(C(C)(C)C(N)=O)c(=O)c2c(C)c(-n3cccn3)sc21)OC1CCC(=O)CC1 [Compound I-170] | ≥ 2 µg/mL | 50 µg/mL (≈ 83.7 µM) | > 50 µg/mL | 50 µg/mL (≈ 83.7 µM) | ≥ 50 µg/mL | > 50 µg/mL | 10 µg/mL (≈ 16.7 µM) | > 50 µg/mL |  |  |  |  |  |  |  |  |
| COCCO[C@@H](Cn1c(=O)n([C@@H](C)C(=O)NC(C)C)c(=O)c2c(C)c(-n3nccn3)sc21)c1cc(F)ccc1OC [Compound I-172] | 2 µg/mL (≈ 3.4 µM) | 10 µg/mL (≈ 17 µM) | > 50 µg/mL | 10 µg/mL (≈ 17 µM) | 50 µg/mL (≈ 84.9 µM) | > 50 µg/mL | 2 µg/mL (≈ 3.4 µM) | 50 µg/mL (≈ 84.9 µM) |  |  |  |  |  |  |  |  |
| COc1ccc(F)cc1[C@H](Cn1c(=O)n(C(C)(C)C(=O)NC(C)C)c(=O)c2c(C)c(-n3nccn3)sc21)OCCN(C)C [Compound I-173] |  |  |  |  |  |  |  |  | 50 µg/mL (≈ 81.2 µM) | > 50 µg/mL | > 50 µg/mL | 10 µg/mL (≈ 16.2 µM) | ≥ 50 µg/mL | > 50 µg/mL | 50 µg/mL (≈ 81.2 µM) | > 50 µg/mL |
| CCOC(=O)c1sc2c(c1C)c(=O)n(C(C)(C)C(N)=O)c(=O)n2C[C@H](OC1CCOCC1)c1ccccc1OC [Compound I-174] |  |  |  |  |  |  |  |  | 10 µg/mL (≈ 17.4 µM) | 10 µg/mL (≈ 17.4 µM) | > 50 µg/mL | 50 µg/mL (≈ 87.2 µM) | 50 µg/mL (≈ 87.2 µM) | > 50 µg/mL | 10 µg/mL (≈ 17.4 µM) | 10 µg/mL (≈ 17.4 µM) |
| CCNC(=O)C(C)(C)n1c(=O)c2c(C)c(C(=O)OCC)sc2n(C[C@H](OC2CCOCC2)c2ccccc2OC)c1=O [Compound I-175] |  |  |  |  |  |  |  |  | 10 µg/mL (≈ 16.6 µM) | 10 µg/mL (≈ 16.6 µM) | > 50 µg/mL | > 50 µg/mL | 50 µg/mL (≈ 83.1 µM) | > 50 µg/mL | 2 µg/mL (≈ 3.32 µM) | 10 µg/mL (≈ 16.6 µM) |
| CCOC(=O)c1sc2c(c1C)c(=O)n(C(C)(C)C(=O)NC(C)C)c(=O)n2C[C@H](OCCOC)c1cc(F)ccc1OC [Compound I-177] | 0.08 µg/mL (≈ 0.132 µM) | 2 µg/mL (≈ 3.29 µM) | > 50 µg/mL | 10 µg/mL (≈ 16.5 µM) | 2 µg/mL (≈ 3.29 µM) | > 50 µg/mL | 2 µg/mL (≈ 3.29 µM) | 0.4 µg/mL (≈ 0.658 µM) |  |  |  |  |  |  |  |  |
| CCOC(=O)c1sc2c(c1C)c(=O)n(C(C)(C)C(=O)N1CCCC1)c(=O)n2C[C@H](OCCO)c1cc(F)ccc1OC [Compound I-178] | 0.4 µg/mL (≈ 0.66 µM) | 2 µg/mL (≈ 3.3 µM) | ≥ 50 µg/mL | 0.4 µg/mL (≈ 0.66 µM) | ≥ 0.4 µg/mL | > 50 µg/mL | 2 µg/mL (≈ 3.3 µM) | 2 µg/mL (≈ 3.3 µM) |  |  |  |  |  |  |  |  |
| CCOC(=O)c1sc2c(c1C)c(=O)n(C(C)(C)C(=O)N1CCCC1)c(=O)n2C[C@H](OCCOC)c1cc(F)ccc1OC [Compound I-179] | 0.4 µg/mL (≈ 0.645 µM) | 10 µg/mL (≈ 16.1 µM) | > 50 µg/mL | 10 µg/mL (≈ 16.1 µM) | ≥ 2 µg/mL | > 50 µg/mL | 2 µg/mL (≈ 3.23 µM) | > 2 µg/mL |  |  |  |  |  |  |  |  |
| CCOC(=O)c1sc2c(c1C)c(=O)n(C(C)(C)C(N)=O)c(=O)n2C[C@H](OCCC#N)c1cc(F)ccc1OC [Compound I-180] | 0.4 µg/mL (≈ 0.714 µM) | > 50 µg/mL | > 50 µg/mL | 10 µg/mL (≈ 17.8 µM) | 50 µg/mL (≈ 89.2 µM) | > 50 µg/mL | 2 µg/mL (≈ 3.57 µM) | 10 µg/mL (≈ 17.8 µM) |  |  |  |  |  |  |  |  |
| CCOC(=O)c1sc2c(c1C)c(=O)n(C(C)(C)C(=O)N1CCCC1)c(=O)n2C[C@H](OCCC#N)c1cc(F)ccc1OC [Compound I-182] | 0.08 µg/mL (≈ 0.13 µM) | 2 µg/mL (≈ 3.25 µM) | > 50 µg/mL | 0.4 µg/mL (≈ 0.651 µM) | 2 µg/mL (≈ 3.25 µM) | > 50 µg/mL | 2 µg/mL (≈ 3.25 µM) | 2 µg/mL (≈ 3.25 µM) |  |  |  |  |  |  |  |  |
| CCOC(=O)c1sc2c(c1C)c(=O)n(C(C)(C)C(N)=O)c(=O)n2C[C@H](OCCO)c1cc(F)ccc1OC [Compound I-183] | 2 µg/mL (≈ 3.63 µM) | > 50 µg/mL | > 50 µg/mL | 2 µg/mL (≈ 3.63 µM) | > 50 µg/mL | > 50 µg/mL | 10 µg/mL (≈ 18.1 µM) | 50 µg/mL (≈ 90.6 µM) |  |  |  |  |  |  |  |  |
| COc1ccc(F)cc1[C@@H](O)Cn1c(=O)n(C(C)(C)C(=O)NC(C)C)c(=O)c2c(C)c(-n3cccn3)sc21 [Compound I-187] | 0.4 µg/mL (≈ 0.736 µM) | 10 µg/mL (≈ 18.4 µM) | > 50 µg/mL | 0.4 µg/mL (≈ 0.736 µM) | 10 µg/mL (≈ 18.4 µM) | ≥ 50 µg/mL | 2 µg/mL (≈ 3.68 µM) | 0.4 µg/mL (≈ 0.736 µM) |  |  |  |  |  |  |  |  |
| COc1ccc(F)cc1[C@H](Cn1c(=O)n(C(C)(C)C(N)=O)c(=O)c2c(C)c(-n3cccn3)sc21)OCCC#N [Compound I-190] |  |  |  |  |  |  |  |  | 10 µg/mL (≈ 18 µM) | > 50 µg/mL | > 50 µg/mL | 10 µg/mL (≈ 18 µM) | > 50 µg/mL | > 50 µg/mL | 10 µg/mL (≈ 18 µM) | 50 µg/mL (≈ 90.2 µM) |
| COc1ccc(F)cc1[C@H](Cn1c(=O)n(C(C)(C)C(=O)N2CCCC2)c(=O)c2c(C)c(-n3cccn3)sc21)OCCC#N [Compound I-194] | 2 µg/mL (≈ 3.29 µM) | 50 µg/mL (≈ 82.1 µM) | > 50 µg/mL | 10 µg/mL (≈ 16.4 µM) | 50 µg/mL (≈ 82.1 µM) | > 50 µg/mL | 10 µg/mL (≈ 16.4 µM) | ≥ 10 µg/mL |  |  |  |  |  |  |  |  |
| COc1ccc(F)cc1[C@H](Cn1c(=O)n(C(C)(C)C(=O)N2CCCC2)c(=O)c2c(C)c(-n3nccn3)sc21)OCCC#N [Compound I-195] | 2 µg/mL (≈ 3.28 µM) | ≥ 2 µg/mL | > 50 µg/mL | 2 µg/mL (≈ 3.28 µM) | 2 µg/mL (≈ 3.28 µM) | > 50 µg/mL | 2 µg/mL (≈ 3.28 µM) | 2 µg/mL (≈ 3.28 µM) |  |  |  |  |  |  |  |  |
